Patent US4130647A, “Methods for treating congestive heart failure and ischemic heart disease” (priority 1977, dated 1978)
“And” between values parts separate entries of the source, which are not always exact repeats. Equal values may be shown once.

Key:
[1] = test system: patients with congestive heart failure; assay: Dose-finding of oral trimazosin in congestive heart failure (Example 2); type: in vivo, human; settings: for Change in Heart Rate at Peak / Change in Systolic Pressure at Peak / Time to Peak Effect: individual patients
Experimental: Studies were performed in male patients with clinical and radiographic evidence of congestive heart failure due to ischemic or primary cardiomyopathy. To be eligible for the study patients had to have supine systolic blood pressure of at least 100 mm. Hg. and a supine resting cardiac index below 2.5 L/min./m^2, as measured by the non-invasive carbon dioxide rebreathing method [Franciosa, et al., J. Lab. Clin. Med., 88, 662 (1976) and Franciosa, et al., Circulation, 55, 449 (1977)]. Six patients met these criteria and were selected for the study.
After obtaining written informed consent, patients were entered into a 2 day dose finding period during which single daily doses of trimazosin were given and blood pressure and heart rate monitored for 4 hours. On day one 100 mg. was given; if no response or side effects occurred, 200 mg. was given the next day. For purposes of this study a response was defined as a fall in supine blood pressure to a level equal to 0.2 × control systolic pressure +76 mm. Hg. This formula was arbitrarily chosen so that patients with control systolic blood pressure as low as 100 mm. Hg. would be included, and their pressures could be reduced to 96 mm. Hg. Upon completion to the dose finding period, no trimazosin was given for the next 24 hours to allow for washout of previous doses. After this, hemodynamic studies were performed employing the predetermined doses; if 200 mg. of trimazosin was ineffective, 300 mg. was given for hemodynamic studies.

[2] = test system: adrenergic; assay: Adrenergic blocking activity of trimazosin
From the text: This observation might have important clinical implications since other vasodilators may be contraindicated in patients with compensated ischemic heart disease who may develop tachycardia and increased myocardial oxygen requirements [Sonnenblick, et al., N. Engl. J. Med., 285, 688 (1971)] in response to vasodilators.

[3] = test system: patients with chronic left sided congestive heart failure; assay: Improvement of symptoms and roentgenographic pulmonary venous congestion, trimazosin (Example 3); type: in vivo, human
From the text: After baseline measurements, all 16 patients received one capsule of single-blind placebo three times daily for two weeks. The patients then received in a double-blind, randomized study trimazosin or placebo for six weeks. Eight patients received one placebo capsule three times daily for weeks one and two, two placebo capsules three times daily for weeks three and four, and three placebo capsules three times daily for weeks five and six of the double-blind period. Seven patients received one 50 mg. trimazosin capsule three times daily for weeks one and two, two 50 mg. trimazosin capsules three times daily for weeks three and four, and three 50 mg. trimazosin capsules three times daily for weeks five and six of the double-blind period. One patient (patient number five on trimazosin) received one 50 mg. trimazosin capsule three times daily for 32 days. Their trimazosin dose was not increased after two weeks of this dose because their standing systolic blood pressure was 104/70 mm. Hg.
The patients were seen by one of the investigators, questioned for symptoms, and given a physical examination in the baseline period, at the end of two weeks of single-blind placebo, and at the end of weeks one, two, three, four, five, and six on double-blind medication. […]
The data listed in Tables 1-4 were analyzed using Student's t test for independent means. […]

[4] = clinical; settings: human, po
[5] = 200 mg. trimazosin oral, mean of 4, ns
[6] = 200 mg. trimazosin, patient no. 4

## COc1cc2c(N)nc(N3CCN(C(=O)OCC(C)(C)O)CC3)nc2c(OC)c1OC [trimazosin, 2-hydroxy-2-methylpropyl 4-(4-amino-6,7,8-trimethoxy-2-quinazolinyl)-1-piperazinecarboxylate]
[1]; 100 mg. trimazosin oral
  Change in Heart Rate at Peak: -4 beats/min. and -2 beats/min. and -15 beats/min. and -10 beats/min.
  Change in Systolic Pressure at Peak: -4 mm.Hg. and -22 mm.Hg. and -8 mm.Hg. and -16 mm.Hg. and -9 mm.Hg.
  Time to Peak Effect: 240 min and 120 min and 180 min and 90 min
[1]; 100 mg. trimazosin oral, mean of 6
  Time to Peak Effect, mean: 155.0 min
[1]; 100 mg. trimazosin oral, mean of 6, P <0.02
  Change in Systolic Pressure at Peak, mean: -10.5 mm.Hg.
[1]; 100 mg. trimazosin oral, mean of 6, P <0.05
  Change in Heart Rate at Peak, mean: -6.5 beats/min.
[1]; 100 mg. trimazosin, of six patients
  desired hypotensive response: 2 patients (nos. 5 and 6)
[1]; 200 mg. trimazosin oral
  Change in Heart Rate at Peak: 15 beats/min. and -3 beats/min. and 2 beats/min. and -1 beats/min.
  Change in Systolic Pressure at Peak: -21 mm.Hg. and -20 mm.Hg. and -8 mm.Hg. and -1 mm.Hg.
  Time to Peak Effect: 240 min and 90 min and 210 min and 180 min
[1]; 200 mg. trimazosin oral, mean of 4
  Time to Peak Effect, mean: 180.0 min
[1]; [5]
  Change in Heart Rate at Peak, mean: 3.3 beats/min.
  Change in Systolic Pressure at Peak, mean: -12.5 mm.Hg.
[1]; 200 mg. trimazosin, of four patients
  systolic pressure lowered to the desired goal: 2 patients (nos. 1 and 2)
[1]; 200 mg. trimazosin, patient no. 3
  desired reduction in systolic pressure and side effects: neither the desired reduction in systolic pressure nor side effects
[1]; [6]
  side effect: orthostatic light-headedness
  supine systolic pressure: essentially no fall
[1]; 200 mg. trimazosin, patient no. 4, fell from 103
  standing systolic pressure: 91 mm. Hg.
[2]
  adrenergic blocking activity: does not possess adrenergic blocking activity
[3]; vs. none of eight on placebo, p=0.038
  disappearance of pulmonary venous congestion on chest roentgenogram: Four of the eight patients
[3]; vs. one of eight on placebo, p=0.020
  good or excellent improvement in symptoms: Six of the eight patients
[4]; in vivo
  half-life: 3 to 6 h
[4]; plasma
  Tmax: 1 to 2 h
